In US9227921B2, “Salts and polymorphs of a tetracycline compound” (Paratek Pharmaceuticals, Inc., priority 2008, dated 2016):

Key:
Format in all cases: physicochemical
[1] = Solubility of crystalline tosylate salt (excess solids, HPLC of supernatant); settings: for Solubility: ambient temperature, two hours
Experimental: (§1) The solubilities were determined by mixing excess solids with solvent, at ambient temperature for two hours, followed by filtration of the supernatant. The supernatant concentration was determined by high-performance liquid chromatography (HPLC). […] The pH of 122.1 mg of the subject crystalline tosylate salt in 1.0 mL of water was determined to be 5.70.

[2] = Water content and room temperature stability of crystalline tosylate salt
Experimental: Upon drying, water content in the crystalline tosylate salt of Compound 1 was calculated to be 0.5%. After standing at room temperature for 24 hours, this value increased to 5%. In contrast to the amorphous Compound 1, the crystalline tosylate salt of Compound 1 was stable for weeks and months at room temperature, maintaining a water content of approximately 5%.

[3] = pH of crystalline tosylate salt in water; settings: 122.1 mg in 1.0 mL of water
Experimental: as §1

[4] = Photostability study (HPLC impurity profile)
Experimental: (§2) Reversed-phase HPLC analysis was conducted using a SYMMETRY SHIELD RP18 column (4.6×250 mm, 5 µm particle size), although analysis using a similar or equivalent column would be expected to yield similar results. The mobile phase components were 0.01 M ammonium acetate in water at pH 3.3 (A) and acetonitrile (B). The mobile phase composition was a gradient that increased from 6% to 15% B in five minutes, held at 15% B for 15 minutes, increased from 15% to 60% B in ten minutes, then from 60% to 90% B in two minutes, and then the system was re-equilibrated at 6% B for four minutes. The flow rate was 1.0 mL/minute, and the injection volume was 10.0 μL. The column temperature was maintained at 30° C. Detection was by ultraviolet light (UV) at 280 nm. The retention time for Compound 1 was approximately 15.7 minutes. The sample solution was prepared in mobile phase A to a final concentration of 2.0 mg/mL.
A photostability study was conducted on the tosylate salt of Compound 1. Two samples were prepared in clear glass Petri dishes. One sample was wrapped in aluminum foil to serve as a control sample. Both samples were placed in the ES 2000 Environmental Light 10 Chamber and exposed to 12 kilolux of cool white fluorescent light for a total of 47 hours.

[5] = Hygroscopicity by symmetric vapor sorption analyzer; settings: 95% RH, 25.0° C.
Experimental: The hygroscopicity of the subject crystalline tosylate salt was determined using a symmetric vapor sorption analyzer, and reported as wt % gained as a function of percent relative humidity (% RH) from 5% to 95% to 1%, at 5% intervals at 25.0° C. A maximum weight gain of 12 wt % at 95% RH, with slight hysteresis upon desorption, was observed, and a 2 wt % loss due to IPA was observed.

[6] = Temperature and moisture stability study (HPLC impurity profile)
Experimental: A stability study was conducted on tosylate salt and mesylate salt of Compound 1, by monitoring changes in the high performance liquid chromatography (HPLC) impurity profiles for each salt when exposed to various temperatures and/or humidity conditions. Each sample was placed in a closed container and exposed to three controlled environments: refrigerated (5° C.), 20° C. and 60% relative humidity, and 40° C. and 75% relative humidity. […] The stability study of the crystalline tosylate salt was continued.
Samples were analyzed by the following reversed-phase HPLC impurity profile method at time points 0, 1, 2, 4 weeks (Table 7) and 3 months (Table 8) for the tosylate salt; and 0, 1 and 2 weeks for the mesylate salt (Table 9).
as §2

[7] = room temperature, weeks and months
[8] = Control sample wrapped in aluminum foil, 47 hours in light chamber
[9] = Exposed to 12 kilolux cool white fluorescent light, 47 hours

Equilibration in water (appearance) ([1]; 56.8 mg in 0.5 mL water): clear solutions
Equilibration in water (appearance) ([1]; 122.1 mg in 1.0 mL water): clear solutions
Solubility ([1]; Acetonitrile): 5.9 mg/mL
Solubility ([1]; IPA): 5.8 mg/mL
Solubility ([1]; Methanol): 86.1 mg/mL
Solubility ([1]; Water): >100 mg/mL
water content ([2]; after standing at room temperature for 24 hours): 5%
stability at room temperature [2, 7]: stable
water content maintained [2, 7]: approximately 5%
water content ([2]; upon drying): 0.5%
pH [3]: 5.70
Compound 1 [4, 8]: 98.2%
RRT 0.52 [4, 8]: 0.06%
RRT 0.77 [4, 8]: 0.08%
RRT 0.93 [4, 8]: 0.12%
RRT 1.19 [4, 8]: 0.26%
RRT 1.26 [4, 8]: 1.2%
RRT 1.77 [4, 8]: 0.16%
Compound 1 [4, 9]: 98.2%
RRT 0.52 [4, 9]: 0.06%
RRT 0.77 [4, 9]: 0.09%
RRT 0.93 [4, 9]: 0.13%
RRT 1.19 [4, 9]: 0.26%
RRT 1.26 [4, 9]: 1.1%
RRT 1.77 [4, 9]: 0.16%
maximum weight gain (hygroscopicity) [5]: 12 wt %
4-keto compound RRT = 1.57 ([6]; 0 month, 20° C. & 60% RH): 0.05%
Beta-epimer RRT = 1.26 ([6]; 0 month, 20° C. & 60% RH): 1.76%
Total impurity ([6]; 0 month, 20° C. & 60% RH): 2.12%
4-keto compound RRT = 1.57 ([6]; 0 month, 40° C. & 75% RH): 0.05%
Beta-epimer RRT = 1.26 ([6]; 0 month, 40° C. & 75% RH): 1.76%
Total impurity ([6]; 0 month, 40° C. & 75% RH): 2.12%
Compound 1 ([6]; 1 week, 5° C.): 98.5%
RRT 0.52 ([6]; 1 week, 5° C.): 0.09%
RRT 1.19 ([6]; 1 week, 5° C.): 0.21%
RRT 1.26 (beta-epimer) ([6]; 1 week, 5° C.): 1.1%
RRT 1.77 ([6]; 1 week, 5° C.): 0.11%
Total Impurities ([6]; 1 week, 5° C.): 1.51
Compound 1 ([6]; 1 week, 20° C. & 60% RH): 98.3%
RRT 0.52 ([6]; 1 week, 20° C. & 60% RH): 0.09%
RRT 1.19 ([6]; 1 week, 20° C. & 60% RH): 0.21%
RRT 1.26 (beta-epimer) ([6]; 1 week, 20° C. & 60% RH): 1.2%
RRT 1.77 ([6]; 1 week, 20° C. & 60% RH): 0.12%
Total Impurities ([6]; 1 week, 20° C. & 60% RH): 1.63
Compound 1 ([6]; 1 week, 40° C. & 75% RH): 98.2%
RRT 0.52 ([6]; 1 week, 40° C. & 75% RH): 0.09%
RRT 0.77 ([6]; 1 week, 40° C. & 75% RH): 0.05%
RRT 1.19 ([6]; 1 week, 40° C. & 75% RH): 0.21%
RRT 1.26 (beta-epimer) ([6]; 1 week, 40° C. & 75% RH): 1.3%
RRT 1.77 ([6]; 1 week, 40° C. & 75% RH): 0.14%
Total Impurities ([6]; 1 week, 40° C. & 75% RH): 1.80
Compound 1 ([6]; 2 weeks, 5° C.): 98.4%
RRT 0.52 ([6]; 2 weeks, 5° C.): 0.08%
RRT 0.93 ([6]; 2 weeks, 5° C.): 0.08%
RRT 1.19 ([6]; 2 weeks, 5° C.): 0.24%
RRT 1.26 (beta-epimer) ([6]; 2 weeks, 5° C.): 1.1%
RRT 1.77 ([6]; 2 weeks, 5° C.): 0.12%
Total Impurities ([6]; 2 weeks, 5° C.): 1.62
Compound 1 ([6]; 2 weeks, 20° C. & 60% RH): 98.4%
RRT 0.52 ([6]; 2 weeks, 20° C. & 60% RH): 0.08%
RRT 0.93 ([6]; 2 weeks, 20° C. & 60% RH): 0.08%
RRT 1.19 ([6]; 2 weeks, 20° C. & 60% RH): 0.25%
RRT 1.26 (beta-epimer) ([6]; 2 weeks, 20° C. & 60% RH): 1.1%
RRT 1.77 ([6]; 2 weeks, 20° C. & 60% RH): 0.15%
Total Impurities ([6]; 2 weeks, 20° C. & 60% RH): 1.66
Compound 1 ([6]; 2 weeks, 40° C. & 75% RH): 98.3%
RRT 0.52 ([6]; 2 weeks, 40° C. & 75% RH): 0.08%
RRT 0.93 ([6]; 2 weeks, 40° C. & 75% RH): 0.09%
RRT 1.19 ([6]; 2 weeks, 40° C. & 75% RH): 0.25%
RRT 1.26 (beta-epimer) ([6]; 2 weeks, 40° C. & 75% RH): 1.1%
RRT 1.77 ([6]; 2 weeks, 40° C. & 75% RH): 0.16%
Total Impurities ([6]; 2 weeks, 40° C. & 75% RH): 1.68
4-keto compound RRT = 1.57 ([6]; 3 month, 20° C. & 60% RH): 0.10%
Beta-epimer RRT = 1.26 ([6]; 3 month, 20° C. & 60% RH): 1.74%
M-2 impurity RRT = 0.84 ([6]; 3 month, 20° C. & 60% RH): 0.18%
Total impurity ([6]; 3 month, 20° C. & 60% RH): 2.86%
4-keto compound RRT = 1.57 ([6]; 3 month, 40° C. & 75% RH): 0.14%
Beta-epimer RRT = 1.26 ([6]; 3 month, 40° C. & 75% RH): 1.66%
M-2 impurity RRT = 0.84 ([6]; 3 month, 40° C. & 75% RH): 0.31%
Total impurity ([6]; 3 month, 40° C. & 75% RH): 3.12%
Compound 1 ([6]; 4 weeks, 5° C.): 98.3%
RRT 0.52 ([6]; 4 weeks, 5° C.): 0.09%
RRT 0.77 ([6]; 4 weeks, 5° C.): 0.08%
RRT 0.93 ([6]; 4 weeks, 5° C.): 0.07%
RRT 1.19 ([6]; 4 weeks, 5° C.): 0.23%
RRT 1.26 (beta-epimer) ([6]; 4 weeks, 5° C.): 1.0%
RRT 1.77 ([6]; 4 weeks, 5° C.): 0.14%
Total Impurities ([6]; 4 weeks, 5° C.): 1.61
Compound 1 ([6]; 4 weeks, 20° C. & 60% RH): 98.2%
RRT 0.52 ([6]; 4 weeks, 20° C. & 60% RH): 0.10%
RRT 0.77 ([6]; 4 weeks, 20° C. & 60% RH): 0.10%
RRT 0.93 ([6]; 4 weeks, 20° C. & 60% RH): 0.12%
RRT 1.19 ([6]; 4 weeks, 20° C. & 60% RH): 0.24%
RRT 1.26 (beta-epimer) ([6]; 4 weeks, 20° C. & 60% RH): 1.1%
RRT 1.77 ([6]; 4 weeks, 20° C. & 60% RH): 0.18%
Total Impurities ([6]; 4 weeks, 20° C. & 60% RH): 1.84
Compound 1 ([6]; 4 weeks, 40° C. & 75% RH): 98.1%
RRT 0.52 ([6]; 4 weeks, 40° C. & 75% RH): 0.10%
RRT 0.77 ([6]; 4 weeks, 40° C. & 75% RH): 0.17%
RRT 0.93 ([6]; 4 weeks, 40° C. & 75% RH): 0.13%
RRT 1.19 ([6]; 4 weeks, 40° C. & 75% RH): 0.26%
RRT 1.26 (beta-epimer) ([6]; 4 weeks, 40° C. & 75% RH): 1.1%
RRT 1.77 ([6]; 4 weeks, 40° C. & 75% RH): 0.20%
Total Impurities ([6]; 4 weeks, 40° C. & 75% RH): 1.96
Compound 1 ([6]; Initial): 98.4%
RRT 0.52 ([6]; Initial): 0.06%
RRT 1.19 ([6]; Initial): 0.24%
RRT 1.26 (beta-epimer) ([6]; Initial): 1.2%
RRT 1.77 ([6]; Initial): 0.10%
Total Impurities ([6]; Initial): 1.60
relative stability among crystalline forms ([6]; after two weeks, 5° C., 20° C. & 60% RH, 40° C. & 75% RH): most stable crystalline form
storage stability ([6]; refrigerated and/or 20° C. & 60% RH, at least four weeks): stable
Compound: CN(C)c1cc(CNCC(C)(C)C)c(O)c2c1CC1CC3C(N(C)C)C(O)=C(C(N)=O)C(=O)C3(O)C(O)=C1C2=O.Cc1ccc(S(=O)(=O)O)cc1 (stereo not shown) [tosylate salt of Compound 1]
